Measured values as given in ChEMBL document CHEMBL1949630, “Discovery of benzodihydroisofurans as novel, potent, bioavailable and brain-penetrant prolylcarboxypeptidase inhibitors” (Bioorg Med Chem Lett, 2012).
Activity calls are given as the source filed them. The rule behind the calls is not given here.

What was measured:
[1] = target: T1, Lysosomal Pro-X carboxypeptidase (Mus musculus) (UniProt Q7TMR0); experiment: Inhibition of mouse PrCP in qd for 2 days po dosed established diet-induced obese C57BL/6 mouse heat inactivated plasma; format: organism-based
T1 sequence (whole entry): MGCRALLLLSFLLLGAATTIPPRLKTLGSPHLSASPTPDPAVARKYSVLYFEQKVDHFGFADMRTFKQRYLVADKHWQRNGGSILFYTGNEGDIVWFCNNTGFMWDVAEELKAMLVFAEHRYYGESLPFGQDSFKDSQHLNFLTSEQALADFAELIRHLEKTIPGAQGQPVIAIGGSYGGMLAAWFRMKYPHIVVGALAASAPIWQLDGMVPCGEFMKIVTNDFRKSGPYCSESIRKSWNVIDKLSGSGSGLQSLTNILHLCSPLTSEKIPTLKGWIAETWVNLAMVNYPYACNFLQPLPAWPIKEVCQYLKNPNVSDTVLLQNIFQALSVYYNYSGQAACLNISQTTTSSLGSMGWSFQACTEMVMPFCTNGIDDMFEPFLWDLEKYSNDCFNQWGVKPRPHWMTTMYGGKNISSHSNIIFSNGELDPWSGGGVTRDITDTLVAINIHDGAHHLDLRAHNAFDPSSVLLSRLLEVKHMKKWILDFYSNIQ

[2] = target: T2, Lysosomal Pro-X carboxypeptidase (Mus musculus, UniProt Q7TMR0); experiment: Inhibition of mouse PrCP
T2 sequence (Q7TMR0 whole entry): T1 sequence (whole entry)

[3] = target: T2, Lysosomal Pro-X carboxypeptidase; experiment: Inhibition of PrCP in mouse plasma assessed as angiotensin 3 cleavage by whole serum shift assay
[4] = Fraction unbound in human plasma; format: ADME, cell-free
[5] = Fraction unbound in mouse plasma; format: ADME, cell-free
[6] = Oral bioavailability in C57BL/6 mouse at 2 mg/kg by LC/MS/MS analysis; format: ADME, organism-based; settings: in vivo
[7] = Oral bioavailability in rat at 2 mg/kg by LC/MS/MS analysis; format: ADME, organism-based; settings: in vivo
[8] = Oral bioavailability in dog at 2 mg/kg by LC/MS/MS analysis; format: ADME, organism-based, Canis lupus familiaris; settings: in vivo
[9] = Clearance in C57BL/6 mouse at 1 mg/kg, iv and 2 mg/kg, po by LC/MS/MS analysis; format: ADME, organism-based; settings: in vivo
[10] = Clearance in rat at 1 mg/kg, iv and 2 mg/kg, po by LC/MS/MS analysis; format: ADME, organism-based; settings: in vivo
[11] = Clearance in dog at 1 mg/kg, iv and 2 mg/kg, po by LC/MS/MS analysis; format: ADME, organism-based, Canis lupus familiaris; settings: in vivo
[12] = Volume of distribution at steady state in C57BL/6 mouse at 1 mg/kg, iv and 2 mg/kg, po by LC/MS/MS analysis; format: ADME, organism-based; settings: in vivo, read-out: Vdss
[13] = Volume of distribution at steady state in rat at 1 mg/kg, iv and 2 mg/kg, po by LC/MS/MS analysis; format: ADME, organism-based; settings: in vivo, read-out: Vdss
[14] = Volume of distribution at steady state in dog at 1 mg/kg, iv and 2 mg/kg, po by LC/MS/MS analysis; format: ADME, organism-based, Canis lupus familiaris; settings: in vivo, read-out: Vdss
[15] = Half life in C57BL/6 mouse at 1 mg/kg, iv and 2 mg/kg, po by LC/MS/MS analysis; format: ADME, organism-based; settings: in vivo
[16] = Half life in rat at 1 mg/kg, iv and 2 mg/kg, po by LC/MS/MS analysis; format: ADME, organism-based; settings: in vivo
[17] = Half life in dog at 1 mg/kg, iv and 2 mg/kg, po by LC/MS/MS analysis; format: ADME, organism-based, Canis lupus familiaris; settings: in vivo
Mus musculus [18] = experiment: Dose normalized AUC in C57BL/6 mouse at 2 mg/kg by LC/MS/MS analysis; format: ADME, organism-based; design: dose 2 mg/kg; settings: in vivo
Rattus norvegicus = experiment: Dose normalized AUC in rat at 2 mg/kg by LC/MS/MS analysis; format: ADME, organism-based; design: dose 2 mg/kg; settings: in vivo
Canis familiaris = experiment: Dose normalized AUC in dog at 2 mg/kg by LC/MS/MS analysis; format: ADME, organism-based, Canis lupus familiaris; design: dose 2 mg/kg; settings: in vivo
[19] = Ratio of drug level in brain to plasma in wild type CF1 mouse at 3 mg/kg, po after 4 hrs; format: ADME, organism-based; design: dose 3 mg/kg, route oral; settings: brain and plasma, read-out: BPR
[20] = Ratio of drug level in brain to plasma in p-gp-/- mouse at 3 mg/kg, po after 4 hrs; format: ADME, organism-based; design: dose 3 mg/kg, route oral; settings: brain and plasma, read-out: BPR
[21] = Drug uptake in established diet-induced obese C57BL/6 mouse blood at 3 mg/kg, po qd for 2 days; format: ADME, organism-based; design: dose 3 mg/kg, route oral; settings: read-out: Drug uptake
[22] = Drug uptake in established diet-induced obese C57BL/6 mouse blood at 10 mg/kg, po qd for 2 days; format: ADME, organism-based; design: dose 10 mg/kg, route oral; settings: read-out: Drug uptake
[23] = Drug uptake in established diet-induced obese C57BL/6 mouse blood at 30 mg/kg, po qd for 2 days; format: ADME, organism-based; design: dose 30 mg/kg, route oral; settings: read-out: Drug uptake
[24] = Plasma concentration in established diet-induced obese C57BL/6 mouse at 3 mg/kg, po qd for 2 days; format: ADME, organism-based; design: dose 3 mg/kg, route oral
[25] = Plasma concentration in established diet-induced obese C57BL/6 mouse at 10 mg/kg, po qd for 2 days; format: ADME, organism-based; design: dose 10 mg/kg, route oral
[26] = Plasma concentration in established diet-induced obese C57BL/6 mouse at 30 mg/kg, po qd for 2 days; format: ADME, organism-based; design: dose 30 mg/kg, route oral
[27] = Drug uptake in established diet-induced obese C57BL/6 mouse brain at 3 mg/kg, po qd for 2 days; format: ADME, organism-based; design: dose 3 mg/kg, route oral; settings: read-out: Drug uptake
[28] = Drug uptake in established diet-induced obese C57BL/6 mouse brain at 10 mg/kg, po qd for 2 days; format: ADME, organism-based; design: dose 10 mg/kg, route oral; settings: read-out: Drug uptake
[29] = Drug uptake in established diet-induced obese C57BL/6 mouse brain at 30 mg/kg, po qd for 2 days; format: ADME, organism-based; design: dose 30 mg/kg, route oral; settings: read-out: Drug uptake
[30] = target: T1, Lysosomal Pro-X carboxypeptidase (Mus musculus); experiment: Inhibition of mouse PrCP in 3 mg/kg, po administered qd for 2 days established diet-induced obese C57BL/6 mouse heat inactivated plasma; format: organism-based; design: dose 3 mg/kg; settings: at 3 mg/kg
[31] = target: T1, Lysosomal Pro-X carboxypeptidase (Mus musculus); experiment: Inhibition of mouse PrCP in 10 mg/kg, po administered qd for 2 days established diet-induced obese C57BL/6 mouse heat inactivated plasma; format: organism-based; design: dose 10 mg/kg; settings: at 10 mg/kg
[32] = target: T1, Lysosomal Pro-X carboxypeptidase (Mus musculus); experiment: Inhibition of mouse PrCP in 30 mg/kg, po administered qd for 2 days established diet-induced obese C57BL/6 mouse heat inactivated plasma; format: organism-based; design: dose 30 mg/kg; settings: at 30 mg/kg
Mus musculus [33] = experiment: Antiobesity activity in established diet-induced obese C57BL/6 mouse assessed as reduction of body weight at 30 mg/kg, po qd for 5 days; format: functional, organism-based; design: dose 30 mg/kg
Mus musculus [34] = experiment: Antiobesity activity in PrCP knockout mouse assessed as reduction of body weight at 30 mg/kg, po qd for 5 days; format: functional, organism-based; design: dose 30 mg/kg
[35] = Plasma concentration in established diet-induced obese wild type C57BL/6 mouse at 30 mg/kg, po qd for 5 days measured on day 6; format: ADME, organism-based; design: dose 30 mg/kg, route oral
[36] = Plasma concentration in PrCP knockout mouse at 30 mg/kg, po qd for 5 days measured on day 6; format: ADME, organism-based; design: dose 30 mg/kg, route oral
[37] = Drug uptake in established diet-induced obese wild type C57BL/6 mouse brain at 30 mg/kg, po qd for 5 days measured on day 6; format: ADME, organism-based; design: dose 30 mg/kg, route oral; settings: read-out: Drug uptake
[38] = Drug uptake in PrCP knockout mouse brain at 30 mg/kg, po qd for 5 days measured on day 6; format: ADME, organism-based; design: dose 30 mg/kg, route oral; settings: read-out: Drug uptake
[39] = target: T1, Lysosomal Pro-X carboxypeptidase (Mus musculus); experiment: Inhibition of mouse PrCP in 30 mg/kg, po qd for 5 days established diet-induced obese wild type C57BL/6 mouse heat inactivated plasma measured on day 6; format: organism-based; design: dose 30 mg/kg; settings: at 30 mg/kg
[40] = target: T1, Lysosomal Pro-X carboxypeptidase (Mus musculus); experiment: Inhibition of mouse PrCP in 30 mg/kg, po qd for 5 days established diet-induced obese wild type C57BL/6 mouse heat inactivated brain homogenates measured on day 6; format: organism-based; design: dose 30 mg/kg; settings: at 30 mg/kg

For `FC(F)(F)Oc1ccc(CN2CCC3(CC2)OC(c2cc(Cl)ccn2)c2ccccc23)cc1` (configuration not stated), the inhibition [1] was “Dose-dependent effect”, the IC50 [2] was 0.18 nM and the IC50 [3] was 23 nM. For the same molecule, the fraction unbound [4] was < 0.0006, the fraction unbound [5] was < 0.0006 and the bioavailability [6] was 35%. The bioavailability [7] was 60%, the bioavailability [8] was 88% and the clearance [9] was 45 mL/min/kg. For the same molecule, the clearance [10] was 11 mL/min/kg, the clearance [11] was 5.9 mL/min/kg and the Vd [12] was 20 L/kg. It also gave a Vd [13] of 5.9 L/kg, a Vd [14] of 5.5 L/kg and a half-life [15] of 402 min. It also gave a half-life [16] of 534 min, a half-life [17] of 840 min and an AUC/dose (Mus musculus [18]) of 0.28 µM·kg·h/mg. For the same molecule, the AUC/dose (Rattus norvegicus) was 1.8 µM·kg·h/mg, the AUC/dose (Canis familiaris) was 5 µM·kg·h/mg and the Kp at 4 h [19] was 0.94. It also gave a Kp at 4 h [20] of 1.9, a concentration at 48 h [21] of 80 nM and a concentration at 48 h [22] of 280 nM. The concentration at 48 h [23] was 590 nM, the concentration at 48 h [24] was 50 nM and the concentration at 48 h [25] was 240 nM. It also gave a concentration at 48 h [26] of 520 nM, a concentration at 48 h [27] of 30 nM and a concentration at 48 h [28] of 110 nM. It also gave a concentration at 48 h [29] of 520 nM, an inhibition [30] of 53% and an inhibition [31] of 82%. For the same molecule, the inhibition [32] was 93%, the Activity (Mus musculus [33]) was “inactive” and the Activity (Mus musculus [34]) was “inactive”. The concentration at 120 h [35] was 1420 nM, the concentration at 120 h [36] was 1570 nM and the concentration at 120 h [37] was 690 nM. It also gave a concentration at 120 h [38] of 820 nM, an inhibition [39] of 88% and an inhibition [40] of 61%.
